Experimental data reported in US7531533B2, “6-Membered heterocyclic compound and use thereof” (Asahi Kasei Pharma Corporation, priority 2005, dated 2009).

Assays:
crab-eating monkeys = assay: Intraocular pressure lowering action in crab-eating monkeys; type: in vivo, crab-eating monkey; details: 50 μl instilled, measured over 6 hours, 3 monkeys
Description: Intraocular Pressure Lowering Action
Male crab-eating monkeys with a body weight of 5 to 7.5 kg (5- to 10-year old) were used for the experiment. Example Compound Nos. IAH-H001a, IAH-H010, and IAH-H057 were each dissolved at various concentrations in water or physiological saline containing sodium hydroxide in an amount of the same equivalence as each compound. The intraocular pressure was measured immediately before a treatment with a test compound, then 50 μl of a solution containing each test compound was instilled, and the intraocular pressure was measured over time for 6 hours after the instillation. The intraocular pressure was measured under ketamine (5 to 10 mg/kg, intramuscular injection) anesthetization by using a pneumatic applanation tonometer. Each test compound was used in 3 monkeys, and the intraocular pressures before and after the instillation were compared.

human EP2 receptor = target: T1, human EP2 receptor (Homo sapiens, UniProt P43116); assay: [3H]PGE2 receptor binding test, human EP2 receptor expressing HEK293 membrane fraction; details: [3H]PGE2 1 nM
T1 construct: expressed in transfected cells
Description: (§1) Receptor Binding Test by Using Human EP Receptor Expressing Cells
(§2) In order to evaluate the selectivity for each EP receptor subtype, which is considered to greatly influence on the side reaction of drugs, [^3H]PGE2 binding inhibitory activities of test compounds were measured in HEK293 in which human EP1, human EP2, human EP3, or human EP4 receptor was stably expressed.
(§3) As a result of searching for prostaglandin E receptors using Refseq Database, the gene information of human EP1 (NM_000955), human EP2 (NM_000956), human EP3 (NM_198719), and human EP4 (NM_000958) was obtained. […] After the reaction, the reaction mixture was subjected to suction filtration under reduced pressure so that [^3H]PGE2 binding to the membrane fraction was trapped on Unifilter Plate GF/C (produced by Packard), and binding radioactivity was measured by using a liquid scintillator.
(§4) The Kd value was obtained by Scatchard plot. […] The [^3H]PGE2 binding inhibitory activity of a test compound was measured by adding [^3H]PGE2 (1 nM) and a test compound at various concentrations. […]
(§5) Further, HEK293 in which each of human EP1, human EP2, and human EP3 receptors was stably expressed was established, and a membrane fraction was prepared. […] The ratios of Ki value for human EP4 to Ki values for human EP1, human EP2, and human EP3 were calculated. […]

[1] = tested on: dextran sulfate-induced inflammatory intestinal disease model mice; assay: Action in dextran sulfate-induced inflammatory intestinal disease model mice; type: in vivo, mouse; details: 7% DSS drinking water 10 days; 0.1-100 mg/kg every day for 10 days
Description: Action in Dextran Sulfate-Induced Inflammatory Intestinal Disease Model Mice
8-Week old female C57BL/6J mice were allowed to take 7% dextran sulfate (henceforth abbreviated as “DSS”) solution as drinking water ad libitum for 10 days to prepare inflammatory intestinal disease model. From the start of DSS intake, Example Compound Nos. IAH-H001a, IAH-H010 and IAH-H057 each dissolved in a suitable solvent (20 to 50% PEG 400 or 15% cyclodextrin) in the same manner as in Formulation Example 1 were given at appropriate doses (0.1 mg/kg, 1 mg/kg, 10 mg/kg, or 100 mg/kg) every day for 10 days (henceforth referred to as “medicament-treated groups”). Further, the solvent used for dissolving the compounds of the present invention was solely given to the mice made to take DSS (henceforth referred to as “solvent group”), and the solvent used for dissolving the compounds of the present invention was solely given every day to the mice allowed to take distilled water not containing DSS as drinking water ad libitum (henceforth referred to as “normal group”). The number of mice in each group was 10. After the start of intake of drinking water, body weight and clinical score were measured every other day. […] The mice were sacrificed 10 days after the start of intake of DSS containing water, and weights of the intestinal tracts of the large intestines were measured.

human EP3 receptor = target: T2, human EP3 receptor (Homo sapiens, UniProt P43115); assay: [3H]PGE2 receptor binding test, human EP3 receptor expressing HEK293 membrane fraction; details: [3H]PGE2 1 nM
T2 construct: expressed in transfected cells
T2 sequence (P43115 1-390): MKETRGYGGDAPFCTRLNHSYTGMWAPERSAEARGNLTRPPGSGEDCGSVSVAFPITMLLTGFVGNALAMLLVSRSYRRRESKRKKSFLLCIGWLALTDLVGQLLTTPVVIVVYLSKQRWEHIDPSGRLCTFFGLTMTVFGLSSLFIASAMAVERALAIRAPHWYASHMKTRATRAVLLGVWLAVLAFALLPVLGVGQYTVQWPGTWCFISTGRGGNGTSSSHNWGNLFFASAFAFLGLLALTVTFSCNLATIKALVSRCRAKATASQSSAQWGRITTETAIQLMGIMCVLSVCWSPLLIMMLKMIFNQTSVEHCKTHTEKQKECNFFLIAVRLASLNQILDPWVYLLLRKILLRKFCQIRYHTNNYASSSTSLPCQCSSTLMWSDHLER
Description: as §1, §2, §3, §4, §5

human EP1 receptor = target: T3, human EP1 receptor (Homo sapiens, UniProt P34995); assay: [3H]PGE2 receptor binding test, human EP1 receptor expressing HEK293 membrane fraction; details: [3H]PGE2 1 nM
T3 construct: expressed in transfected cells
T3 sequence (P34995 1-402): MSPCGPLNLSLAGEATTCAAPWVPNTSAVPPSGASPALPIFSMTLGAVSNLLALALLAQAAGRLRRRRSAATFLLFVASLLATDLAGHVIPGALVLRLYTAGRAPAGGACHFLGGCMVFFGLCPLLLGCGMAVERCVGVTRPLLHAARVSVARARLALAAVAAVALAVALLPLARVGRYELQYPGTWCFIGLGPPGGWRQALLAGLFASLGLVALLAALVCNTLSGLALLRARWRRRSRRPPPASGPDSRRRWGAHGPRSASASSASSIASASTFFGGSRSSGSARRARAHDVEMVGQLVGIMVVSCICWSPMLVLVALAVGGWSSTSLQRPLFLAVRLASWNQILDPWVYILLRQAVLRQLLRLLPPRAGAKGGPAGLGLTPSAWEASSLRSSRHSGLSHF
Description: as §1, §2, §3, §4, §5

T1 sequence (P43116 whole entry): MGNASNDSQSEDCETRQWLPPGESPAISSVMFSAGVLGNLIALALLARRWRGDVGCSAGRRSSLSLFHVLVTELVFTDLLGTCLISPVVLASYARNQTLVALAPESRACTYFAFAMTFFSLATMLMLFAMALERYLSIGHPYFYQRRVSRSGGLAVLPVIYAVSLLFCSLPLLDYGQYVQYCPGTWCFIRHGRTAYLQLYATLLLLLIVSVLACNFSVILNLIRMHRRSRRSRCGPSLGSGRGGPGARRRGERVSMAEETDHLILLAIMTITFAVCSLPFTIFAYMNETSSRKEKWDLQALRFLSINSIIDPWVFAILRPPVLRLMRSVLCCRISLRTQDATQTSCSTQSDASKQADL

In the case of O=C(O)c1ccc(CCN2C(=O)CCCN2CCC(O)Cc2cccc(C(F)(F)F)c2)cc1 (stereo not drawn) [IAH-H001a, 4-[2-(2-{3-hydroxy-4-[3-(trifluoromethyl)-phenyl]butyl}-6-oxotetrahydropyridazin-1-yl)ethyl]benzoic acid], the “intraocular pressure after instillation compared with before instillation” value (crab-eating monkeys) is reported as “significant intraocular pressure lowering action”, the “ratio of Ki values human EP2/human EP4” value (human EP2 receptor) is reported as 15000 and the “diarrhea score and bloody stool score compared with the solvent group” value [1] is reported as “significantly improved and suppressed”. For the same molecule, the “reduction of the large intestine weight compared with the solvent group” value [1] was “significantly suppressed”, the “ratio of Ki values human EP3/human EP4” value (human EP3 receptor) was ≥ 45000 and the “ratio of Ki values human EP1/human EP4” value (human EP1 receptor) was ≥ 80000.
